Results on eight compounds are retold here after PubChem BioAssay (NCI).

Test systems include 786-0 renal; MDA-N; HOP-62 NSCLC; HCT-116 colon; HCC-2998 colon; NCI-H23 lung; M14 melanoma; OVCAR-8 ovarian; COLO 205 colon; SW-620 colon; SF-268 CNS; LOX IMVI melanoma; SF-539 CNS; SK-MEL-5 melanoma; KM12 colon; IGROV1 ovarian; SNB-19 CNS; UO-31 renal; HL-60(TB) leukemia.
What all share (experiment): NCI-60 cell line screen, 48 h

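Growth conditions: 96-well plates. Treatment: test compound, 48 hours, 5 concentrations. Analysis: linear interpolation between bracketing concentrations; unreached endpoints set to highest concentration. TGI: total growth inhibition.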

Turning to `O=C1C2=Cc3ccccc3OC2(O)Oc2cc3ccccc3cc21` (stereo not given), the TGI with 786-0 renal is greater than 100 µM; with MDA-N, greater than 100 µM; in the assay with HOP-62 NSCLC it was greater than 100 µM; with HCT-116 colon, greater than 100 µM; with HCC-2998 colon it was 74.9 µM; in the assay on NCI-H23 lung, greater than 100 µM. The TGI in the assay on M14 melanoma, in the assay on OVCAR-8 ovarian, in the assay on COLO 205 colon, in the assay on SW-620 colon, in the assay on SF-268 CNS and in the assay on LOX IMVI melanoma was greater than 100 µM each time. Besides, the TGI with SF-539 CNS was 79.2 µM; in the assay with SK-MEL-5 melanoma, greater than 100 µM; with KM12 colon, greater than 100 µM; with IGROV1 ovarian, greater than 100 µM.
As for `C=CCCON(C(=O)OC(C)(C)C)c1ccccc1`, the TGI with SNB-19 CNS, in the assay on 786-0 renal, in the assay on MDA-N, in the assay with HOP-62 NSCLC, with HCT-116 colon and with NCI-H23 lung was greater than 100 µM in each case. In addition, the TGI in the assay on M14 melanoma, with OVCAR-8 ovarian, in the assay with COLO 205 colon, in the assay on SW-620 colon, in the assay with SF-268 CNS and in the assay on LOX IMVI melanoma was greater than 100 µM each time. In addition, the TGI in the assay with SF-539 CNS, in the assay with SK-MEL-5 melanoma, in the assay on KM12 colon, in the assay with IGROV1 ovarian, with UO-31 renal and in the assay with HL-60(TB) leukemia was greater than 100 µM each time.
For `Nc1cc([N+](=O)[O-])ccc1C(=O)N1CCC[C@H]1CO`, the TGI in the assay on SNB-19 CNS, in the assay on 786-0 renal, in the assay with MDA-N, in the assay on HCT-116 colon, with NCI-H23 lung and with OVCAR-8 ovarian was greater than 100 µM each time. Moreover, the TGI in the assay with COLO 205 colon, in the assay with SW-620 colon, in the assay with SF-268 CNS, with LOX IMVI melanoma, in the assay with SF-539 CNS and in the assay on KM12 colon was greater than 100 µM each time. The TGI in the assay with IGROV1 ovarian, with UO-31 renal and in the assay on HL-60(TB) leukemia was greater than 100 µM throughout.
For the compound `O=c1[nH]c2cc(C(F)(F)F)ccc2nc1C(F)(F)F`, the TGI is greater than 100 µM with SNB-19 CNS; greater than 100 µM in the assay on 786-0 renal; greater than 100 µM with MDA-N; 76.7 µM with HOP-62 NSCLC; greater than 100 µM in the assay with HCT-116 colon; greater than 100 µM in the assay with HCC-2998 colon. Further, the TGI with NCI-H23 lung was 94.2 µM; in the assay on M14 melanoma, greater than 100 µM; in the assay with OVCAR-8 ovarian it was greater than 100 µM; in the assay with COLO 205 colon it was greater than 100 µM; in the assay on SW-620 colon it was greater than 100 µM; with SF-268 CNS it was greater than 100 µM. The TGI is greater than 100 µM with LOX IMVI melanoma; 94.6 µM in the assay with SF-539 CNS; 35.7 µM with SK-MEL-5 melanoma; 71.2 µM in the assay with KM12 colon; greater than 100 µM with IGROV1 ovarian; greater than 100 µM in the assay on UO-31 renal.
On to `COc1c(=O)cc2cc[nH]c3cc[nH]c1c23`, for which the TGI in the assay with SNB-19 CNS, in the assay with 786-0 renal, with MDA-N, with HCT-116 colon, with HCC-2998 colon and in the assay with NCI-H23 lung was greater than 100 µM each time. The TGI in the assay on M14 melanoma, in the assay on OVCAR-8 ovarian, with COLO 205 colon, with SW-620 colon, in the assay with LOX IMVI melanoma and in the assay with SK-MEL-5 melanoma was greater than 100 µM each time. Further, the TGI with KM12 colon, in the assay on IGROV1 ovarian, in the assay with UO-31 renal and in the assay on HL-60(TB) leukemia was greater than 100 µM in each case.
Turning to `C#CCn1c(=O)c(I)cn(/C(=C/C(=O)OCC)C(=O)OCC)c1=O`, the TGI in the assay on SNB-19 CNS was 34.5 µM; in the assay on 786-0 renal, 3.09 µM; with MDA-N, 9.41 µM; in the assay on HOP-62 NSCLC, 32.9 µM; in the assay with HCT-116 colon, 3.59 µM; in the assay on NCI-H23 lung it was 45.5 µM. Besides, the TGI in the assay with M14 melanoma was 3.61 µM; with OVCAR-8 ovarian, 19.1 µM; in the assay on COLO 205 colon, 2.94 µM; with SW-620 colon it was 4 µM; with SF-268 CNS, 35.1 µM; with LOX IMVI melanoma it was greater than 48.5 µM. Also, the TGI amounted to 12.3 µM in the assay with SF-539 CNS; 34.8 µM in the assay with KM12 colon; 38.3 µM in the assay on IGROV1 ovarian; 2.86 µM in the assay with UO-31 renal; 3.89 µM in the assay with HL-60(TB) leukemia.
Take `CC(C)CCNC(=O)c1ccc(CNC(=O)/C=C/c2cccc(Oc3ccccc3)c2)cc1`: the TGI was greater than 100 µM in the assay on SNB-19 CNS; 69.3 µM in the assay with 786-0 renal; 38.3 µM in the assay on MDA-N; 53.3 µM with HOP-62 NSCLC; greater than 100 µM with HCT-116 colon; greater than 100 µM in the assay with HCC-2998 colon. Besides, the TGI with NCI-H23 lung, with M14 melanoma, in the assay with OVCAR-8 ovarian, in the assay with COLO 205 colon, in the assay on SW-620 colon and in the assay with SF-268 CNS was greater than 100 µM in each case. The TGI in the assay with LOX IMVI melanoma, with SF-539 CNS, in the assay with SK-MEL-5 melanoma, with KM12 colon, with IGROV1 ovarian and in the assay on UO-31 renal was greater than 100 µM throughout.
As to `Cc1c(N2C(=O)C(Cl)C2/C=C/c2ccccc2)c(=O)n(-c2ccccc2)n1C` (stereo not given), the TGI is 67.1 µM in the assay on 786-0 renal; 40 µM with MDA-N; 60.9 µM in the assay on HOP-62 NSCLC; 34.8 µM in the assay with HCT-116 colon; 32.8 µM in the assay on NCI-H23 lung; 36 µM in the assay on M14 melanoma. Also, the TGI was 56.4 µM in the assay on OVCAR-8 ovarian; 28 µM with COLO 205 colon; 82.1 µM in the assay with SW-620 colon; greater than 100 µM in the assay on SF-268 CNS; 34.5 µM in the assay on LOX IMVI melanoma; 62.3 µM in the assay on SF-539 CNS. Moreover, the TGI is 30 µM with SK-MEL-5 melanoma; 29.5 µM in the assay on KM12 colon; 42.8 µM with IGROV1 ovarian; 92.4 µM in the assay with UO-31 renal; 45.3 µM with HL-60(TB) leukemia.
